Results as given in publication PMC9823088, “The oral selective estrogen receptor degrader GDC-0810 (ARN-810) in postmenopausal women with hormone receptor-positive HER2-negative (HR + /HER2 −) advanced/metastatic breast cancer” (Breast Cancer Research and Treatment, 2022).

Assays:
ERα = test system: ERα; set-up: method as in PMID 27410477; details: MCF-7 breast cancer cell; cited from earlier work
[1] = test system: ER + (HER2 −) locally advanced or metastatic breast cancer; assay: Anti-tumor activity per RECIST v1.1 (best confirmed overall outcome, clinical benefit rate, progression-free survival), phase Ia/Ib/IIa study; assay type: in vivo, human
Description: This was a multi-institutional phase Ia/Ib/IIa, open-label, dose finding, safety, pharmacokinetics, and proof-of-concept study of GDC-0810 in women with ER + metastatic breast cancer. Phase Ia employed a standard 3 + 3 dose-escalation scheme. Phase Ib was dose escalation as part of combination treatment. Phase IIa explored the recommended phase 2 dose (RP2D) from phase Ia. The protocol was approved by institutional review boards (IRBs) at participating institutions. Written informed consent was obtained from patients prior to performing any procedures; the study was conducted in accordance with the principles of the Declaration of Helsinki and Good Clinical Practice.
Blood samples were collected for pharmacokinetic assessments. Tumor assessments were performed at screening and every 8 weeks from cycle 1, day 1 (C1D1). Radiographic assessment of objective tumor response or disease progression was based on Response Evaluation Criteria in Solid Tumors (RECIST v1.1). Transvaginal ultrasound scans were performed to monitor endometrial thickness at screening, at every 6 months from C1D1, and at the end of treatment. Imaging with [^18F]-fluoroestradiol positron emission tomography (FES-PET) was performed to quantify ER expression in tumors and to assess for pharmacodynamic response. Further assessment details are provided in Supplementary Methods.
Analyses of safety, pharmacokinetics, anti-tumor activity, and data from the FES-PET imaging correlative studies were planned. Confirmatory inferential analyses and imputation for missing data were not planned due to the exploratory nature of this study. Descriptive statistics were used to summarize patient data. The number of patients to be enrolled was dependent upon the observed safety and pharmacokinetic profile during dose escalations. The safety- and efficacy-evaluable population included patients who received at least one dose of the study drug. Safety was assessed through summaries of DLTs, AEs, changes in select laboratory test results, vital signs, ECGs, and changes in endometrial thickness. Objective response (with confirmation) and clinical benefit rates (CBR) were derived per RECIST v1.1 and summarized by dose level and cohort.
CYP2B6 and CYP2C enzymes. No hormonal therapy, chemotherapy, immunotherapy, or experimental anti-cancer medications were permitted during the study. […]
Tumor assessments were performed at screening and every 8 weeks from cycle-1, day-1 (C1D1). Radiographic assessment of objective tumor response or disease progression was based on Response Evaluation Criteria in Solid Tumors (RECIST v1.1). Transvaginal ultrasound scans were performed to monitor endometrial thickness at screening, at every 6 months from C1D1, and at the end of treatment. […]

[2] = all patients, phase IIa A1, 600 mg QD, n = 19
[3] = all patients, phase IIa A2, 600 mg QD, n = 10
[4] = all patients, phase IIa B1, 600 mg QD, n = 53
[5] = all patients, phase IIa B2, 600 mg QD, n = 19
[6] = all patients, phase Ia cohorts 1–9, 100–800-mg BID, 300–400-mg QD, n = 41
[7] = all patients, phase Ib C1, 400 mg QD + PALBO, n = 4
[8] = all patients, phase Ib D1, 600 mg QD + LHRH-A, n = 6
[9] = overall, 3 study phases (152 patients)
[10] = patients (n = 77) with tumors harboring ESR1 mutations
[11] = patients with tumors harboring ESR1 mutations
[12] = tumors harboring ESR1 mutations, phase IIa A1, 600 mg QD, n = 19
[13] = tumors harboring ESR1 mutations, phase IIa A2, 600 mg QD, n = 9
[14] = tumors harboring ESR1 mutations, phase IIa B1, 600 mg QD, n = 20
[15] = tumors harboring ESR1 mutations, phase IIa B2, 600 mg QD, n = 4
[16] = tumors harboring ESR1 mutations, phase Ia cohorts 1–9, 100–800-mg BID, 300–400-mg QD, n = 23
[17] = tumors harboring ESR1 mutations, phase Ib D1, 600 mg QD + LHRH-A, n = 2

For `CC/C(=C(/c1ccc(/C=C/C(=O)O)cc1)c1ccc2[nH]ncc2c1)c1ccc(F)cc1Cl` [GDC-0810], the “proteasomal degradation of ERα” value (ERα) is listed as “induced proteasomal degradation of ERα”, the “response of ER to estrogens” value (ERα) is listed as “fully antagonized” and the CBR ([1]; 17 patients in phase Ia previously treated with fulvestrant) is listed as 35%. For the same molecule, the “median time to event (median PFS)” value ([1]; 54 patients in study phases Ib/IIa with tumors harboring ESR1 mutations) was 3.5 months, the “median time to event (median PFS)” value ([1]; 111 patients in study phases Ib/IIa) was 3.5 months and the Missing or unevaluable [1, 2] was 1 (5%) n (%). The Non-complete response/non-progressive disease [1, 2] was 5 (26%) n (%), the Partial response [1, 2] was 0 n (%) and the Progressive disease [1, 2] was 9 (47%) n (%). The Stable disease [1, 2] was 4 (21%) n (%), the Missing or unevaluable [1, 3] was 2 (20%) n (%) and the Non-complete response/non-progressive disease [1, 3] was 0 n (%). For the same molecule, the Partial response [1, 3] was 0 n (%), the Progressive disease [1, 3] was 4 (40%) n (%) and the Stable disease [1, 3] was 4 (40%) n (%). The Missing or unevaluable [1, 4] was 3 (6%) n (%), the Non-complete response/non-progressive disease [1, 4] was 8 (15%) n (%) and the Partial response [1, 4] was 4 (8%) n (%). For the same molecule, the Progressive disease [1, 4] was 21 (40%) n (%), the Stable disease [1, 4] was 17 (32%) n (%) and the Missing or unevaluable [1, 5] was 0 n (%). For the same molecule, the Non-complete response/non-progressive disease [1, 5] was 4 (21%) n (%), the Partial response [1, 5] was 0 n (%) and the Progressive disease [1, 5] was 11 (58%) n (%). The Stable disease [1, 5] was 4 (21%) n (%), the Non-complete response/non-progressive disease [1, 6] was 0 n (%) and the Partial response [1, 6] was 2 (5%) n (%). For the same molecule, the Progressive disease [1, 6] was 12 (29%) n (%), the Stable disease [1, 6] was 26 (63%) n (%) and the Missing or unevaluable [1, 7] was 0 n (%). For the same molecule, the Non-complete response/non-progressive disease [1, 7] was 1 (25%) n (%), the Partial response [1, 7] was 0 n (%) and the Progressive disease [1, 7] was 1 (25%) n (%). The Stable disease [1, 7] was 2 (50%) n (%), the Missing or unevaluable [1, 8] was 0 n (%) and the Non-complete response/non-progressive disease [1, 8] was 1 (17%) n (%). For the same molecule, the Partial response [1, 8] was 0 n (%), the Progressive disease [1, 8] was 3 (50%) n (%) and the Stable disease [1, 8] was 2 (33%) n (%). For the same molecule, the Progressive disease ([1]; overall population) was 40%, the Stable disease ([1]; overall population) was 39% and the missing/unevaluable ([1]; overall population) was 5%. The non-complete response/non-progressive disease ([1]; overall population) was 13%, the partial responses ([1]; overall population) was 4% and the Progressive disease [1, 9] was 61 (40%) n (%). The Stable disease [1, 9] was 59 (39%) n (%), the non-complete response/non-progressive disease [1, 9] was 19 (13%) n (%) and the partial responses [1, 9] was 6 (4%) n (%). The CBR ([1]; overall, 3 study phases, n = 40) was 26%, the Progressive disease [1, 10] was 29 (38%) n (%) and the Stable disease [1, 10] was 32 (42%) n (%). For the same molecule, the missing/unevaluable [1, 10] was 4 (5%) n (%), the non-complete response/non-progressive disease [1, 10] was 9 (12%) n (%) and the partial responses [1, 10] was 3 (4%) n (%). The Progressive disease [1, 11] was 38%, the Stable disease [1, 11] was 42% and the missing/unevaluable [1, 11] was 5%. For the same molecule, the non-complete response/non-progressive disease [1, 11] was 12%, the partial responses [1, 11] was 4% and the “CBR (responses or SD lasting ≥ 24 weeks)” value ([1]; phase Ia dose escalation, 16 patients) was 39%. For the same molecule, the Missing or unevaluable ([1]; phases Ib and IIa (n = 111)) was 6 (5%) n (%), the “PD, best confirmed overall outcome” value ([1]; phases Ib and IIa (n = 111)) was 49 (44%) n (%) and the “non-complete response or non-progressive disease (non CR/PD)” value ([1]; phases Ib and IIa (n = 111)) was 19 (17%) n (%). For the same molecule, the CBR ([1]; phases Ib combination treatments and IIa expansion cohorts (n = 111), n = 24) was 22%, the CBR ([1]; tumors harboring ESR1 mutations, phase Ib/IIa (8 of 54 patients)) was 15% and the Missing or unevaluable [1, 12] was 1 (5%) n (%). For the same molecule, the Non-complete response/non-progressive disease [1, 12] was 5 (26%) n (%), the Partial response [1, 12] was 0 n (%) and the Progressive disease [1, 12] was 9 (47%) n (%). The Stable disease [1, 12] was 4 (21%) n (%), the Missing or unevaluable [1, 13] was 2 (22%) n (%) and the Non-complete response/non-progressive disease [1, 13] was 0 n (%). For the same molecule, the Partial response [1, 13] was 0 n (%), the Progressive disease [1, 13] was 4 (44%) n (%) and the Stable disease [1, 13] was 3 (33%) n (%). For the same molecule, the Missing or unevaluable [1, 14] was 1 (5%) n (%), the Non-complete response/non-progressive disease [1, 14] was 3 (15%) n (%) and the Partial response [1, 14] was 1 (5%) n (%). The Progressive disease [1, 14] was 7 (35%) n (%), the Stable disease [1, 14] was 8 (40%) n (%) and the Missing or unevaluable [1, 15] was 0 n (%). For the same molecule, the Non-complete response/non-progressive disease [1, 15] was 1 (25%) n (%), the Partial response [1, 15] was 0 n (%) and the Progressive disease [1, 15] was 2 (50%) n (%). The Stable disease [1, 15] was 1 (25%) n (%), the Missing or unevaluable [1, 16] was 0 n (%) and the Non-complete response/non-progressive disease [1, 16] was 0 n (%). For the same molecule, the Partial response [1, 16] was 2 (9%) n (%), the Progressive disease [1, 16] was 6 (26%) n (%) and the Stable disease [1, 16] was 15 (65%) n (%). For the same molecule, the Missing or unevaluable [1, 17] was 0 n (%), the Non-complete response/non-progressive disease [1, 17] was 0 n (%) and the Partial response [1, 17] was 0 n (%). For the same molecule, the Progressive disease [1, 17] was 1 (50%) n (%) and the Stable disease [1, 17] was 1 (50%) n (%).
